Earlier results on two substances are cited in patent publication US4746505A, “Technetium radiodiagnostic fatty acids derived from bisamide bisthiol ligands” (President and Fellows of Harvard College, priority 1985, dated 1988).

For data set [1] the following is noted: mice.
For data set [2] the following is noted: at carrier-added (CA) and no-carrier-added (NCA) concentrations.

Consider “^99m Tc-oxo[N,N'-ethylene-bis(2-mercapto)-[2'-(11-carboxyundecyl)]thio-acetamido]-technetate (+5) [^99m TcO(Undec)ema]”, for which the kidney activity entry in data set [1] (at 5 min post-injection) is given as “relatively high kidney activity”. For the same substance, the blood levels in data set [1] (over the first 30 min) is given as 6-8 %/g.

Take “oxo[N,N'-ethylenebis(2-mercapto-acetamido)]technetate (+5) [[TcO(ema)]^-]”: the stability in vitro result in data set [2] was “stable”. Also, the stability in vivo result (at carrier-added (CA) and no-carrier-added (NCA) concentrations) is listed as “stable”. Also, the renal excretion entry (in vivo) is “rapid renal excretion”.
